Assays:
[1] = system: microbial flora in the target watershed (environmental microbes, resistant genes); details: logistic model fitting of S against concentration; target solution DNA
[2] = system: microbial flora in the target watershed; details: determined by EUCAST database; unit assumed; cited from earlier work
[3] = system: microbial flora in the target watershed; test: minimum inhibitory concentration (MIC) by EUCAST database and drug resistance prediction invalid concentration PNECr; details: PNECR=MIC/AF, AF 10
Description: Minimum inhibitory concentration (MIC) of some antibiotics and drug resistance prediction invalid concentration (PNECr) of microbes

[4] = buffer; cited from earlier work

Row | Molecule | MSC value (antibiotic concentration at S=0) [1] | Observed MIC [2] | PNECr [3] | t1/2 [4]
1 | CN(C)[C@@H]1C(O)=C(C(N)=O)C(=O)[C@@]2(O)C(O)=C3C(=O)c4c(O)cccc4[C@@](C)(O)[C@H]3C[C@@H]12 [Tetracycline] | ~11.39 µg/L | – | – | –
2 | N[C@@H]1[C@H]2CN(c3nc4c(cc3F)c(=O)c(C(=O)O)cn4-c3ccc(F)cc3F)C[C@@H]12 [Travafloxacin] | – | 8 µg/mL | 0.8 | –
3 | CC[C@H]1OC(=O)C[C@@H](O)[C@H](C)[C@@H](O[C@@H]2O[C@H](C)[C@@H](O[C@H]3C[C@@](C)(O)[C@@H](O)[C@H](C)O3)[C@H](N(C)C)[C@H]2O)[C@@H](CC=O)C[C@@H](C)C(=O)/C=C/C(C)=C/[C@@H]1CO[C@@H]1O[C@H](C)[C@@H](O)[C@@H](OC)[C@H]1OC [Tylosin] | – | 2000 µg/mL | 200 | –
4 | Bacitracin | – | 2000 µg/mL | 200 | –
5 | Capreomycin | – | 1000 µg/mL | 100 | –
6 | Cefadroxil | – | 125 µg/mL | 12.5 | –
7 | Cefalexin | – | 250 µg/mL | 25 | –
8 | Chloramphenicol | – | 125 µg/mL | 12.5 | –
9 | Colistin | – | 64 µg/mL | 6.4 | –
10 | Dehydrated erythromycin | – | – | – | 365 days
11 | Ethambutol | – | 1000 µg/mL | 100 | –
12 | FLORFENICOL | – | 125 µg/mL | 12.5 | –
13 | Fosfomycin | – | 125 µg/mL | 12.5 | –
14 | Fusiform acid | – | 32 µg/mL | 3.2 | –
15 | Gentamicin | – | 16 µg/mL | 1.6 | –
16 | Kanamycin | – | 125 µg/mL | 12.5 | –
17 | Lincomycin | – | 500 µg/mL | 50 | –
18 | Linezolid | – | 125 µg/mL | 12.5 | –
19 | Lolakabiv | – | 125 µg/mL | 12.5 | –

Row | Molecule | MSC value (antibiotic concentration at S=0) [1] | Observed MIC [2] | PNECr [3] | t1/2 [4]
20 | Mikafenjin | – | 4 µg/mL | 0.4 | –
21 | Nalidixic acid | – | 500 µg/mL | 50 | –
22 | Narasin | – | 125 µg/mL | 12.5 | –
23 | Neomycin | – | 125 µg/mL | 12.5 | –
24 | Pefloxacin | – | 4000 µg/mL | 400 | –
25 | Penicillin | – | 4 µg/mL | 0.4 | –
26 | Quinupustine | – | 4 µg/mL | 0.4 | –
27 | Sparfloxacin | – | 500 µg/mL | 50 | –
28 | Spiramycin | – | 2000 µg/mL | 200 | –
29 | Streptomycin | – | 125 µg/mL | 12.5 | –
30 | Sulbactam sodium | – | 250 µg/mL | 25 | –
31 | Sulfamethoxazole | – | 1000 µg/mL | 100 | –
32 | Teicoplanin | – | 1000 µg/mL | 100 | –
33 | Tiamulin | – | 500 µg/mL | 50 | –
34 | Tilmicosin | – | 250 µg/mL | 25 | –
35 | Vancomycin | – | 125 µg/mL | 12.5 | –
36 | Viomycin | – | 1000 µg/mL | 100 | –
37 | Virginiamycin | – | 250 µg/mL | 25 | –

— patent publication US11959122B2
